target: Factor IXa (Homo sapiens, UniProt P00740); assay: Determination of inhibitory activity against Factor IXa (cleavage of fluorescent peptide substrate); assay type: biochemical; settings: cleavage of fluorescent peptide CH3SO2-D-CHG-Gly-Arg-AFC, release of AFC; read-out: FIXa IC50
Outline: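 Factor IXa activity followed via cleavage of CH3SO2-D-CHG-Gly-Arg-AFC, releasing AFC. Fluorescence read at excitation 405 nm, emission 510 nm.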

Sequence of Factor IXa (P00740 227-461 limits assumed): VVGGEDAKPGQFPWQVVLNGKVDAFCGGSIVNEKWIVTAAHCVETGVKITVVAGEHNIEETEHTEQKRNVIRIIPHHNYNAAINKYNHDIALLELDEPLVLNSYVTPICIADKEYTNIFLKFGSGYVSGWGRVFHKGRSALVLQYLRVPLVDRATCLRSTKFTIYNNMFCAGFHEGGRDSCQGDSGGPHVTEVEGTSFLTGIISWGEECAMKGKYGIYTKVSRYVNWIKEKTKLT
Sequence of Factor IXa (P00740 47-191 partner limits assumed): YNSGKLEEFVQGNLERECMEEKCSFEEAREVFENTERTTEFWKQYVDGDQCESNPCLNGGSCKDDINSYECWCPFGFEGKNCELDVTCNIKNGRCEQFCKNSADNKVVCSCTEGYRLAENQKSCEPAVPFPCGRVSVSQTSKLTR

| IC50 [nM] | SMILES |
| --- | --- |
| 690 | COC(=O)c1cc(-n2ccc(N3CCO[C@](C)([C@@H](O)C(=O)Nc4ccc5c(N)noc5c4)C3=O)n2)ccn1 [Example 91, methyl 4-(3-((R)-2-((R)-2-((3-aminobenzo[d]isoxazol-6-yl)amino)-1-hydroxy-2-oxoethyl)-2-methyl-3-oxomorpholino)-1H-pyrazol-1-yl)picolinate] |
| 106 | COc1cc(-n2ccc(N3CCO[C@](C)([C@@H](O)C(=O)Nc4ccc5c(N)noc5c4)C3=O)n2)ccn1 [Example 92, (R)—N-(3-aminobenzo[d]isoxazol-6-yl)-2-hydroxy-2-((R)-4-(1-(2-methoxypyridin-4-yl)-1H-pyrazol-3-yl)-2-methyl-3-oxomorpholin-2-yl)acetamide] |
| 12.9 | C[C@]1([C@@H](O)C(=O)Nc2ccc3c(N)noc3c2)OCCN(c2ccn(-c3ccnc(C(F)(F)F)c3)n2)C1=O [Example 94, (R)—N-(3-aminobenzo[d]isoxazol-6-yl)-2-hydroxy-2-((R)-2-methyl-3-oxo-4-(1-(2-(trifluoromethyl)pyridin-4-yl)-1H-pyrazol-3-yl)morpholin-2-yl)acetamide] |
| 251 | C[C@]1([C@@H](O)C(=O)Nc2ccc3c(N)noc3c2)OCCN(c2ccn(-c3c(F)cncc3F)n2)C1=O [Example 95, (R)—N-(3-aminobenzo[d]isoxazol-6-yl)-2-((R)-4-(1-(3,5-difluoropyridin-4-yl)-1H-pyrazol-3-yl)-2-methyl-3-oxomorpholin-2-yl)-2-hydroxyacetamide] |
| 3.68 | C[C@]1([C@@H](O)C(=O)Nc2ccc3c(N)noc3c2)OCCN(c2ccn(-c3ccnnc3)n2)C1=O [Example 97, (R)—N-(3-aminobenzo[d]isoxazol-6-yl)-2-hydroxy-2-((R)-2-methyl-3-oxo-4-(1-(pyridazin-4-yl)-1H-pyrazol-3-yl)morpholin-2-yl)acetamide] |
| 3.71 | COc1cc(-n2ccc(N3CCO[C@](C)([C@@H](O)C(=O)Nc4ccc5c(N)noc5c4)C3=O)n2)cnn1 [Example 98, (R)—N-(3-aminobenzo[d]isoxazol-6-yl)-2-hydroxy-2-((R)-4-(1-(6-methoxypyridazin-4-yl)-1H-pyrazol-3-yl)-2-methyl-3-oxomorpholin-2-yl)acetamide] |
| 3.7 | [2H]C([2H])([2H])Oc1cc(-n2ccc(N3CCO[C@](C)([C@@H](O)C(=O)Nc4ccc5c(N)noc5c4)C3=O)n2)cnn1 [Example 99, (2R)—N-(3-amino-1,2-benzoxazol-6-yl)-2-hydroxy-2-[(2R)-2-methyl-3-oxo-4-[1-[6-(trideuteriomethoxy)pyridazin-4-yl]pyrazol-3-yl]morpholin-2-yl]acetamide] |
| 2.17 | C[C@]1([C@@H](O)C(=O)Nc2ccc3c(N)noc3c2)OCCN(c2ccn(-c3cnnc(C#N)c3)n2)C1=O [Example 100, (R)—N-(3-aminobenzo[d]isoxazol-6-yl)-2-((R)-4-(1-(6-cyanopyridazin-4-yl)-1H-pyrazol-3-yl)-2-methyl-3-oxomorpholin-2-yl)-2-hydroxyacetamide] |
| 635 | COc1ncc(-n2ccc(N3CCO[C@](C)([C@@H](O)C(=O)Nc4ccc5c(N)noc5c4)C3=O)n2)cn1 [Example 101, (R)—N-(3-aminobenzo[d]isoxazol-6-yl)-2-hydroxy-2-((R)-4-(1-(2-methoxypyrimidin-5-yl)-1H-pyrazol-3-yl)-2-methyl-3-oxomorpholin-2-yl)acetamide] |
| 124 | C[C@]1([C@@H](O)C(=O)Nc2ccc3c(N)noc3c2)OCCN(c2ccn(-c3cnc(C(F)(F)F)nc3)n2)C1=O [Example 102, (R)—N-(3-aminobenzo[d]isoxazol-6-yl)-2-hydroxy-2-((R)-2-methyl-3-oxo-4-(1-(2-(trifluoromethyl)pyrimidin-5-yl)-1H-pyrazol-3-yl)morpholin-2-yl)acetamide] |
| 10.8 | COc1nccc(-n2ccc(N3CCO[C@](C)([C@@H](O)C(=O)Nc4ccc5c(N)noc5c4)C3=O)n2)n1 [Example 103, (R)—N-(3-aminobenzo[d]isoxazol-6-yl)-2-hydroxy-2-((R)-4-(1-(2-methoxypyrimidin-4-yl)-1H-pyrazol-3-yl)-2-methyl-3-oxomorpholin-2-yl)acetamide] |
| 41.6 | C[C@]1([C@@H](O)C(=O)Nc2ccc3c(N)noc3c2)OCCN(c2cccc(-c3ccnnc3)n2)C1=O [Example 112, (R)—N-(3-aminobenzo[d]isoxazol-6-yl)-2-hydroxy-2-((R)-2-methyl-3-oxo-4-(6-(pyridazin-4-yl)pyridin-2-yl)morpholin-2-yl)acetamide] |
| 544 | C[C@]1([C@@H](O)C(=O)Nc2ccc3c(N)noc3c2)OCCN(c2ccc3ccncc3n2)C1=O [Example 117, (R)—N-(3-aminobenzo[d]isoxazol-6-yl)-2-hydroxy-2-((R)-2-methyl-4-(1,7-naphthyridin-2-yl)-3-oxomorpholin-2-yl)acetamide] |

Continued, molecule first:

| SMILES | IC50 [nM] |
| --- | --- |
| Cc1cc(N2CCO[C@](C)([C@@H](O)C(=O)Nc3ccc4c(N)noc4c3)C2=O)nn1-c1ccnc(C(F)(F)F)c1 [Example 96, (R)—N-(3-aminobenzo[d]isoxazol-6-yl)-2-hydroxy-2-((R)-2-methyl-4-(5-methyl-1-(2-(trifluoromethyl)pyridin-4-yl)-1H-pyrazol-3-yl)-3-oxomorpholin-2-yl)acetamide] | 49.1 |
| Cc1cc(N2CCO[C@](C)([C@@H](O)C(=O)Nc3ccc4c(N)noc4c3)C2=O)nn1C1CC1 [Example 104, (R)—N-(3-aminobenzo[d]isoxazol-6-yl)-2-((R)-4-(1-cyclopropyl-5-methyl-1H-pyrazol-3-yl)-2-methyl-3-oxomorpholin-2-yl)-2-hydroxyacetamide] | 401 |
| C[C@]1([C@@H](O)C(=O)Nc2ccc3c(N)noc3c2)OCCN(c2nc(-c3ccncc3)co2)C1=O [Example 105, (R)—N-(3-aminobenzo[d]isoxazol-6-yl)-2-hydroxy-2-((R)-2-methyl-3-oxo-4-(4-(pyridin-4-yl)oxazol-2-yl)morpholin-2-yl)acetamide] | 97.9 |
| C[C@]1([C@@H](O)C(=O)Nc2ccc3c(N)noc3c2)OCCN(c2cccc(OC3CCOCC3)n2)C1=O [Example 108, (R)—N-(3-aminobenzo[d]isoxazol-6-yl)-2-hydroxy-2-((R)-2-methyl-3-oxo-4-(6-((tetrahydro-2H-pyran-4-yl)oxy)pyridin-2-yl)morpholin-2-yl)acetamide] | 370 |
| C[C@]1([C@@H](O)C(=O)Nc2ccc3c(N)noc3c2)OCCN(c2cccc(-c3ccc(OC(F)(F)F)cc3)n2)C1=O [Example 109, (R)—N-(3-aminobenzo[d]isoxazol-6-yl)-2-hydroxy-2-((R)-2-methyl-3-oxo-4-(6-(4-(trifluoromethoxy)phenyl)pyridin-2-yl)morpholin-2-yl)acetamide] | 380 |
| C[C@]1([C@@H](O)C(=O)Nc2ccc3c(N)noc3c2)OCCN(c2cccc(-c3ccc(C(=O)O)cc3)n2)C1=O [Example 110, 4-(6-((R)-2-((R)-2-((3-aminobenzo[d]isoxazol-6-yl)amino)-1-hydroxy-2-oxoethyl)-2-methyl-3-oxomorpholino)pyridin-2-yl)benzoic acid] | 455 |
| C[C@]1([C@@H](O)C(=O)Nc2ccc3c(N)noc3c2)OCCN(c2cccc(-c3ccc(C(F)(F)F)cc3C(=O)O)n2)C1=O [Example 111, 2-(6-((R)-2-((R)-2-((3-aminobenzo[d]isoxazol-6-yl)amino)-1-hydroxy-2-oxoethyl)-2-methyl-3-oxomorpholino)pyridin-2-yl)-5-(trifluoromethyl)benzoic acid] | 972 |
| C[C@]1([C@@H](O)C(=O)Nc2ccc3c(N)noc3c2)OCCN(c2cccc(-c3cnc(C(F)(F)F)nc3)n2)C1=O [Example 113, (R)—N-(3-aminobenzo[d]isoxazol-6-yl)-2-hydroxy-2-((R)-2-methyl-3-oxo-4-(6-(2-(trifluoromethyl)pyrimidin-5-yl)pyridin-2-yl)morpholin-2-yl)acetamide] | 464 |
| C[C@]1([C@@H](O)C(=O)Nc2ccc3c(N)noc3c2)OCCN(c2cccc(-c3cnoc3)n2)C1=O [Example 114, (R)—N-(3-aminobenzo[d]isoxazol-6-yl)-2-hydroxy-2-((R)-4-(6-(isoxazol-4-yl)pyridin-2-yl)-2-methyl-3-oxomorpholin-2-yl)acetamide] | 45.3 |
| Cc1nocc1-c1cccc(N2CCO[C@](C)([C@@H](O)C(=O)Nc3ccc4c(N)noc4c3)C2=O)n1 [Example 115, (R)—N-(3-aminobenzo[d]isoxazol-6-yl)-2-hydroxy-2-((R)-2-methyl-4-(6-(3-methylisoxazol-4-yl)pyridin-2-yl)-3-oxomorpholin-2-yl)acetamide] | 68.2 |
| Cc1noc(C)c1-c1cccc(N2CCO[C@](C)([C@@H](O)C(=O)Nc3ccc4c(N)noc4c3)C2=O)n1 [Example 116, (R)—N-(3-aminobenzo[d]isoxazol-6-yl)-2-((R)-4-(6-(3,5-dimethylisoxazol-4-yl)pyridin-2-yl)-2-methyl-3-oxomorpholin-2-yl)-2-hydroxyacetamide] | 93.5 |
| C[C@]1([C@@H](O)C(=O)Nc2ccc3c(N)noc3c2)OCCN(c2ccc3cc(C(F)(F)F)ncc3n2)C1=O [Example 118, (R)—N-(3-aminobenzo[d]isoxazol-6-yl)-2-hydroxy-2-((R)-2-methyl-3-oxo-4-(6-(trifluoromethyl)-1,7-naphthyridin-2-yl)morpholin-2-yl)acetamide] | 101 |
| C[C@](O)(C(=O)Nc1cc(Cl)c2c(N)noc2c1)[C@H]1OCCN(c2ccn(-c3ccncc3)n2)C1=O [Example 119, (R)—N-(3-amino-4-chlorobenzo[d]isoxazol-6-yl)-2-hydroxy-2-((R)-3-oxo-4-(1-(pyridin-4-yl)-1H-pyrazol-3-yl)morpholin-2-yl)propanamide] | 224 |
| C[C@](O)(C(=O)Nc1cc(Cl)c2c(N)noc2c1)[C@H]1OCCN(c2ccn(-c3ccnc(C(F)(F)F)c3)n2)C1=O [Example 120, (R)—N-(3-amino-4-chlorobenzo[d]isoxazol-6-yl)-2-hydroxy-2-((R)-3-oxo-4-(1-(2-(trifluoromethyl)pyridin-4-yl)-1H-pyrazol-3-yl)morpholin-2-yl)propanamide] | 1050 |

From patent publication US9708308B2, “Factor IXa inhibitors” (Merck Sharp & Dohme Corp., priority 2012, dated 2017)
